Like-named read-outs stand apart in the source and are kept apart here.
Experiments:
[1] = system: delayed-type hypersensitivity; experiment: picryl chloride-induced delayed-type hypersensitivity, ear swelling ratio; assay type: in vivo, mice; details: for swelling ratio (ear): versus Control group
Method: 76 Male mice (C57BU6Ncrj) weighing 18 to 20 g were used. The abdominal portion of each mouse was shaved such that the shaved portion was about 1 cm^2. Thereafter, 20 µl of an ethanol solution of 7 % picryl chloride was applied to the shaved portions for sensitization.
Eighteen out of the 76 mice were used as Control group. A physiological saline solution containing 10 % Nikkol (Nikkol: trade name, dissolving aid, supplied by Nikko Chemical Co., Ltd.) was administered intraperitoneally to the 18 mice for the consecutive 5 days after the sensitization, and ear thickness of each of these 18 mice was measured on the eighth day after the sensitization. Thereafter, 20 µl of an olive oil solution of 1 % picryl chloride was applied to the ear of each of the mice to cause delayed-type hypersensitivity.
The above pharmaceutical solutions were administered intraperitoneally at the above-described doses for the five consecutive days after the sensitization, and ear thickness of each of these mice was measured on the eighth day after the sensitization. Thereafter, 20 µl of an olive oil solution of 1 % picryl chloride was applied to the ear of each of the mice to cause delayed-type hypersensitivity.
24 Hours after the delayed-type hypersensitivity was induced, the swelling of the ear of each of the mice of Control group and Example groups ①, ②and③ was measured with a dial thickness gauge. On the basis of the values of the ear thickness measured before the application of the olive oil solution of 1 % picryl chloride, the swelling ratio of each of Example groups ①, ② and ③ and Control group was determined.
And, the swelling ratio of the mice was determined.
At first, the abdominal portion of each of forty ICR male mice weighing 20 to 25 g was shaved such that the shaved portion was about 1 cm^2. Thereafter, 20 µl of an ethanol solution of 7 % picryl chloride was applied to the shaved portions for sensitization.

IgE antibody = assay type: in vivo, rats; details: for IgE antibody amount in serum, Average value: group average, maximum dilution of serum showing positive reaction
Method: At first, 20 male SD rats weighing 180 to 220 g were prepared. Egg-white albumin in an amount of 1 mg per rat was prepared as an antigen to induce the IgE antibody-antigen mediating immune response. Further, a mixture of 20 mg/rat of aluminum hydroxide with 0.6 mi/rat of pertussis vaccine was prepared as an immune aid (adjuvant).
Then, the above antigen and the above adjuvant were equally administered intracutaneously into the four footpads of each rat for sensitization.
24 Hours after the sensitization, the footpad swelling of each rat was measured by volumetry to determine the swelling ratio (unit: %). Then, the rats were separated into four groups each consisting of 5 rats such that the average swelling ratio of one group was nearly equal to that of another group.
Thereafter, one of the four groups was used as Control group, and a physiological saline solution of 10 % Nikkol (trade name, dissolving aid, supplied by Nikko Chemical Co., Ltd.) was administered intraperitoneally to each rat for the 11 consecutive days after the group separation, and on 15th day after the group separation, the serum of each rat was collected, and measured for an IgE antibody amount by means of a 48-hour homologous PCA reaction (passive cutaneous anaphylaxis reaction) as an index. In addition, the IgE antibody amount is shown in terms of a maximum dilution (unit: %) of serum showing positive reaction (blue spot having a diameter of not less than 5 mm).
Two groups of the remaining three groups were used as Example groups ⑥ and 0. A physiological saline solution of 10 % Nikkol containing VIE-MAN was administered intraperitoneally to each rat of Example group ⑥ in such a dose that the amount of VIE-MAN was 30 mg/kg/day for 11 days after the group separation. And, a physiological saline solution of 10 % Nikkol containing VIE-MAN was administered intraperitoneally to each rat of Example group 0 every other day (number of days for administration: 6 days) in such a dose that the amount of VIE-MAN was 100 mg/kg/day for 11 days after the group separation. Then, on 15th day after the group separation, the serum of each rat was collected, and measured for an IgE antibody amount in the same manner as that for Control group.
One remaining group of the four groups was used as Comparative Example group @. A physiological saline solution of 10 % Nikkol containing hydrocortisone which was an adrenocortical hormone preparation was administered intraperitoneally to each rat in such a dose that the amount of the hydrocortisone was 10 mg/kg/day for the consecutive 11 days after the group separation. Then, on 15th day after the group separation, the serum of each rat was collected, and measured for an IgE antibody amount in the same manner as that for Example groups 6 and ⑦.

[2] = system: carrageenin-induced inflammation; experiment: carrageenin-induced inflammation, right hind paw swelling by volumetry; assay type: in vivo, rats; details: Example 7, Fig. 6; for inhibition activity against carrageenin-induced inflammation: VIE-MAN 10, 30, 100 mg/kg, depending upon its dose, comparators 10 mg/kg, intraperitoneally
Method: Six groups each consisting of five male SD rats weighing 180 to 220 g were used (total 30 rats), and each rat was measured for a size of the subplantar region1 of the right hind paw.
In order to induce carrageenin-induced inflammation, 0.1 ml/rat of a physiological saline solution of 1 % X-carrageenin was prepared.
One out of the six groups was used as Control group. A physiological saline solution of 10 % Nikkol was administered intraperitoneally to each rat of this group, and 0.5 hours after the administration of the physiological saline solution of 10 % Nikkol, 0.1 ml of the physiological saline solution of 1 % X-carrageenin was administered intracutaneously into the subplantar region of the right hind paw of each rat. Then, 0.5, 1, 2, 3 and 4 hours after the administration of […] of the physiological saline solution of 1 % X-carrageenin, the swelling on the subplantar region of the right hind paw of each rat was measured by volumetry, arid the average of swelling ratios of the group in every measurement was determined on the basis of the measurement values of the sizes of subplantar regions of the right hind paws of the rats obtained before the administration of the physiological saline solution of 10 % Nikkol solution.
The procedure for Control group was repeated except that a physiological saline solution of 10 % Nikkol containing VIE-MAN in place of the physiological saline solution of 10 % Nikkol was administered intraperitoneally in such a dose that the amount of VIE-MAN was 10 mg/kg.
The procedure for Control group was repeated except that a physiological saline solution of 10 % Nikkol containing VIE-MAN in place of the physiological saline solution of 10 % Nikkol was administered intraperitoneally in such a dose that the amount of VIE-MAN was 30 mg/kg.
The procedure for Control group was repeated except that a physiological saline solution of 10 % Nikkol containing VIE-MAN in place of the physiological saline solution of 10 % Nikkol was administered intraperitoneally in such a dose that the amount of VIE-MAN was 100 mg/kg.
(§1) The procedure for Example groups ⑭, ⑮ and ⑯ was repeated except that a physiological saline solution of 10 % Nikkol containing cortisone acetate which was a steroidal anti-inflammatory preparation (immunosuppressive preparation) in place of the physiological saline solution of 10 % Nikkol containing VIE-MAN was administered intraperitoneally in such a dose that the amount of the cortisone acetate was 10 mg/kg.
as §1, with “indomethacin” for “cortisone acetate”, “nonsteroidal” for “steroidal”, “(antipyretic analgesic antiphlogistic” for “(immunosuppressive”

[3] = Example 2, Fig. 2, ICR male mice, 100 mg/kg/day intraperitoneally
[4] = Example 2, ICR mice, 100 mg/kg/day intraperitoneally

Structure (SMILES)	swelling ratio (ear) [1, 3]	side effects such as a reduction in body weight [1, 4]	inhibition activity against the IgE antibody production (IgE antibody; same test as Example 3 with VIE-GLU in place of VIE-MAN)	delayed-type hypersensitivity prevented and cured ([1]; Example 1, Fig. 1, 10, 30 and 100 mg/kg/day intraperitoneally)	swelling ratio (ear) ([1]; Example 1, Fig. 1, C57BU6Ncrj mice, 10, 30 and 100 mg/kg/day intraperitoneally for 5 days after sensitization, 24 hours after induction)	preventive and therapeutical effect on delayed-type hypersensitivity (comparison) ([1]; Example 1, Fig. 1, VIE-MAN 10, 30, 100 mg/kg/day versus methotrexate 1 mg/kg/day, intraperitoneally)	side effects such as a reduction in body weight ([1]; Example 1, mice, 10, 30 and 100 mg/kg/day intraperitoneally for 5 days)	average value of the IgE antibody amounts as a group unit (IgE antibody; 30 mg/kg/day (11 days) or 100 mg/kg/day (6 days) intraperitoneally, versus Control group)	inhibition activity against the IgE antibody production (IgE antibody; Example 3 / Comparative Example 2, VIE-MAN 30 or 100 mg/kg/day, hydrocortisone 10 mg/kg/day, intraperitoneally)	IgE antibody amount in serum, Average value (IgE antibody; 30 mg/kg/day (total 11 days) intraperitoneally)	IgE antibody amount in serum, Average value (IgE antibody; 100 mg/kg/day (total 6 days) intraperitoneally)	average of swelling ratios ([2]; 10, 30 and 100 mg/kg intraperitoneally, 0.5 hour after administration of 1 % carrageenin solution, versus Control group)	inhibition activity against carrageenin-induced inflammation [2]	inhibition activity against carrageenin-induced inflammation compared with VIE-MAN ([2]; comparators 10 mg/kg intraperitoneally)
Cc1c(C)c2c(c(C)c1OC1OC(CO)C(O)C(O)C1O)CCC(C)(CCCC(C)CCCC(C)CCCC(C)C)O2 (racemic) [VIE-GLU, dl-α-tocopheryl-,8-D-glucoside]	significantly lower than that of Control group	not observed	excellent inhibition activity											
Cc1c(C)c2c(c(C)c1OC1OC(CO)C(O)C(O)C1O)CCC(C)(CCCC(C)CCCC(C)CCCC(C)C)O2 (racemic) [VIE-MAN, dl-a-tocopheryl-a-D-mannoside]	significantly lower than that of Control group	not observed		dose-dependently prevented and cured	significantly lower than that of Control group	superior to methotrexate	not observed	significantly lower than that of the IgE antibody amounts of Control group	excellent inhibition activity	166.4	128.0	significantly lower than that of swelling ratios of Control group	excellent inhibition activity	
COc1ccc2c(c1)c(CC(=O)O)c(C)n2C(=O)c1ccc(Cl)cc1 [indomethacin, reference compound]													significant activity at and after 0.5 hour	lower than that of VIE-MAN

Source: EP0452507A1, “MEDICINE COMPRISING TOCOPHERYL GLYCOSIDE AS ACTIVE INGREDIENT” (NIPPON HYPOX LABORATORIES INCORPORATED, priority 1989, dated 1991)
